Experimental findings from US5556744A, “Methods and compositions for diagnosing and treating certain HIV infected patients” (The Trustees of the University of Pennsylvania, priority 1994, dated 1996) are described below.

For assay [1], the system named is maternal HIV+ sera (antibodies). Briefly: RIA / ELISA binding of maternal HIV+ sera to gp120 and gp41 peptides (Example 3). Set-up: species or system human. Summed up: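 Peptides were coated at 10 μg/ml in carbonate buffer pH 9.6 and blocked with 1% BSA. Sera at 1:50 and 1:500 were incubated overnight at 4°C and detected with ¹²⁵I anti-human IgG (RIA) or HRP/TMB at OD450 (ELISA). Specific binding was taken as peptide minus no-peptide wells, scored as a ratio to normal human serum.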

In assay [2] the test system is maternal serum samples (antibodies). The assay can be described thus: ELISA peptide-binding of maternal sera, expanded peptide collection (Example 5). Further details: species or system human. The conditions noted are these: Example 5. An excerpt: The gp120 and gp41 peptides used in this experiment include peptides 60 [SEQ ID NO:9], 93 [SEQ ID NO:10], 94 [SEQ ID NO:1], 95 [SEQ ID NO:11], 96 [SEQ ID NO:12], 97 [SEQ ID NO:13], 59 [SEQ ID NO:14], 106 [SEQ ID NO:15], 107 [SEQ ID NO:[…]], 1029/33 [SEQ ID NO:2], p18p [SEQ ID NO:17], B138 [SEQ ID NO:3], 466 [SEQ ID NO:4], 497 [SEQ ID NO:18], 117 [SEQ ID NO:19], F560 [SEQ ID NO:20], 35 [SEQ ID NO:5], 120 [SEQ ID NO:21], 121 [SEQ ID NO:22], 123 [SEQ ID NO:23], 36 [SEQ ID NO:24], 40 [SEQ ID NO:25], 41 [SEQ ID NO:26], 649 [SEQ ID NO:6], 53 [SEQ ID NO:7], 55 [SEQ ID NO:27], 128 [SEQ ID NO:28], 129 [SEQ ID NO:29], 132 [SEQ ID NO:30], 57 [SEQ ID NO:8], and 1103/55 [SEQ ID NO:31] from Table 2. These peptides were synthesized based on the same HIV IIIB isolate as were the peptides of Table 2. Alternative designations for these peptides are provided in brackets.
Each of the peptides was at least 85% pure, making them suitable for ELISA analyses. The average length of these peptides was 18 amino acid residues, which allows for a certain degree of local flexibility and conformational folding, thus facilitating detection of antibody species with reactivities to shaped structures.
The maternal serum samples were obtained from the Mothers/Infants Cohort Study described in Example 1. For the ELISA peptide-binding analyses performed essentially as described in Example 3, maternal serum samples were diluted to 1:50 or 1:500 with blocking buffer (1% bovine serum albumin in phosphate-buffered saline containing 0.05% Tween 20). Binding was measured using 10 μg/mL peptide per well and was considered positive if the experimental/control OD450nm ratio was ≥2. Normal (HIV seronegative) human sera were used as controls.
On the technique in general: An ELISA detects its analyte on a solid surface through an enzyme-linked reagent.

The mark [3] stands for this setting: Serum No. 1, Non-Transmission Group.
Where [4] appears, read: Serum No. 2, Non-Transmission Group.
[5] abbreviates: Serum No. 3, Non-Transmission Group.
The mark [6] stands for this setting: Serum No. 4, Transmission Group.
Where [7] appears, read: Serum No. 5, Transmission Group.
Where [8] appears, read: Serum No. 6, Non-Transmission Group.
Where [9] appears, read: Serum No. 7, Non-Transmission Group.
[10] abbreviates: Serum No. 8, Non-Transmission Group.
The mark [11] stands for this setting: Serum No. 9, Non-Transmission Group.
Setting [12] is: Serum No. 10, Transmission Group.
Where [13] appears, read: Serum No. 11, Non-Transmission Group.
Where [14] appears, read: Serum No. 12, Non-Transmission Group.
[15] abbreviates: Serum No. 13, Transmission Group.
[16] abbreviates: Serum No. 14, Transmission Group.
Where [17] appears, read: Serum No. 15, Transmission Group.
[18] abbreviates: Serum No. 16, Non-Transmission Group.
[19] abbreviates: Serum No. 17, Non-Transmission Group.
Where [20] appears, read: Serum No. 18, Non-Transmission Group.
[21] abbreviates: Serum No. 19, Transmission Group.
Where [22] appears, read: Serum No. 20, Non-Transmission Group.

On to THACVPTDPNPQEVV [Peptide 95], for which the “Number of maternal sera binding to peptide” value in assay [1] (20 maternal sera) is reported as “three”. The “Binding of maternal sera to peptide (in words)” value in assay [1] (Example 3) is recorded as “Several maternal serum samples had reactivity”. Moreover, the “Binding of maternal HIV+ serum to peptide (sera/NHS ratio)” value (from here on “Binding … (sera/NHS ratio)”) in assay [1] (setting [3]) was “+ (which value is between 2 to 3)”; in assay [1] (setting [4]), “- (specific OD450 or cpm of sera sample binding to peptide divided by the specific OD450 or cpm of NHS sample binding to peptide, which value is less than 2)”; in assay [1] (setting [5]) it was “- (specific OD450 or cpm of sera sample binding to peptide divided by the specific OD450 or cpm of NHS sample binding to peptide, which value is less than 2)”; in assay [1] (setting [6]) it was “- (specific OD450 or cpm of sera sample binding to peptide divided by the specific OD450 or cpm of NHS sample binding to peptide, which value is less than 2)”; in assay [1] (setting [7]), “- (specific OD450 or cpm of sera sample binding to peptide divided by the specific OD450 or cpm of NHS sample binding to peptide, which value is less than 2)”; in assay [1] (setting [8]), “- (specific OD450 or cpm of sera sample binding to peptide divided by the specific OD450 or cpm of NHS sample binding to peptide, which value is less than 2)”. In addition, the “Binding … (sera/NHS ratio)” value is listed as “- (specific OD450 or cpm of sera sample binding to peptide divided by the specific OD450 or cpm of NHS sample binding to peptide, which value is less than 2)” in assay [1] (setting [9]); “- (specific OD450 or cpm of sera sample binding to peptide divided by the specific OD450 or cpm of NHS sample binding to peptide, which value is less than 2)” in assay [1] (setting [10]); “- (specific OD450 or cpm of sera sample binding to peptide divided by the specific OD450 or cpm of NHS sample binding to peptide, which value is less than 2)” in assay [1] (setting [11]); “- (specific OD450 or cpm of sera sample binding to peptide divided by the specific OD450 or cpm of NHS sample binding to peptide, which value is less than 2)” in assay [1] (setting [12]); “+ (which value is between 2 to 3)” in assay [1] (setting [13]); “- (specific OD450 or cpm of sera sample binding to peptide divided by the specific OD450 or cpm of NHS sample binding to peptide, which value is less than 2)” in assay [1] (setting [14]). The “Binding … (sera/NHS ratio)” value in assay [1] (setting [15]) is “- (specific OD450 or cpm of sera sample binding to peptide divided by the specific OD450 or cpm of NHS sample binding to peptide, which value is less than 2)”; in assay [1] (setting [16]), “++ (which value is greater than 3)”; in assay [1] (setting [17]), “- (specific OD450 or cpm of sera sample binding to peptide divided by the specific OD450 or cpm of NHS sample binding to peptide, which value is less than 2)”; in assay [1] (setting [18]) it was “- (specific OD450 or cpm of sera sample binding to peptide divided by the specific OD450 or cpm of NHS sample binding to peptide, which value is less than 2)”; in assay [1] (setting [19]) it was “- (specific OD450 or cpm of sera sample binding to peptide divided by the specific OD450 or cpm of NHS sample binding to peptide, which value is less than 2)”; in assay [1] (setting [20]), “- (specific OD450 or cpm of sera sample binding to peptide divided by the specific OD450 or cpm of NHS sample binding to peptide, which value is less than 2)”. In addition, the “Binding … (sera/NHS ratio)” value in assay [1] (setting [21]) is on record as “- (specific OD450 or cpm of sera sample binding to peptide divided by the specific OD450 or cpm of NHS sample binding to peptide, which value is less than 2)”; in assay [1] (setting [22]), “- (specific OD450 or cpm of sera sample binding to peptide divided by the specific OD450 or cpm of NHS sample binding to peptide, which value is less than 2)”. Further, the “Number of binding maternal sera from the transmission group” value in assay [1] (vertical transmission group (7 sera)) was “one”. The “Binding / reactivity of maternal sera to peptide (in words)” value in assay [2] was “Differences in binding between the transmission and non-transmission groups are noted”.
On to LAVERYLKDQQLLGI [Peptide 121], for which the “Binding … (sera/NHS ratio)” value is recorded as “++ (which value is greater than 3)” in assay [1] (setting [3]); “- (specific OD450 or cpm of sera sample binding to peptide divided by the specific OD450 or cpm of NHS sample binding to peptide, which value is less than 2)” in assay [1] (setting [4]); “- (specific OD450 or cpm of sera sample binding to peptide divided by the specific OD450 or cpm of NHS sample binding to peptide, which value is less than 2)” in assay [1] (setting [5]); “- (specific OD450 or cpm of sera sample binding to peptide divided by the specific OD450 or cpm of NHS sample binding to peptide, which value is less than 2)” in assay [1] (setting [6]); “- (specific OD450 or cpm of sera sample binding to peptide divided by the specific OD450 or cpm of NHS sample binding to peptide, which value is less than 2)” in assay [1] (setting [7]); “++ (which value is greater than 3)” in assay [1] (setting [8]). The “Binding … (sera/NHS ratio)” value in assay [1] (setting [9]) is “- (specific OD450 or cpm of sera sample binding to peptide divided by the specific OD450 or cpm of NHS sample binding to peptide, which value is less than 2)”; in assay [1] (setting [10]), “- (specific OD450 or cpm of sera sample binding to peptide divided by the specific OD450 or cpm of NHS sample binding to peptide, which value is less than 2)”; in assay [1] (setting [11]), “- (specific OD450 or cpm of sera sample binding to peptide divided by the specific OD450 or cpm of NHS sample binding to peptide, which value is less than 2)”; in assay [1] (setting [12]), “- (specific OD450 or cpm of sera sample binding to peptide divided by the specific OD450 or cpm of NHS sample binding to peptide, which value is less than 2)”; in assay [1] (setting [13]), “- (specific OD450 or cpm of sera sample binding to peptide divided by the specific OD450 or cpm of NHS sample binding to peptide, which value is less than 2)”; in assay [1] (setting [14]) it was “- (specific OD450 or cpm of sera sample binding to peptide divided by the specific OD450 or cpm of NHS sample binding to peptide, which value is less than 2)”. The “Binding … (sera/NHS ratio)” value in assay [1] (setting [15]) is reported as “- (specific OD450 or cpm of sera sample binding to peptide divided by the specific OD450 or cpm of NHS sample binding to peptide, which value is less than 2)”; in assay [1] (setting [16]), “++ (which value is greater than 3)”; in assay [1] (setting [17]) it was “++ (which value is greater than 3)”; in assay [1] (setting [18]), “++ (which value is greater than 3)”; in assay [1] (setting [19]), “++ (which value is greater than 3)”; in assay [1] (setting [20]) it was “++ (which value is greater than 3)”. For the same sequence, the “Binding … (sera/NHS ratio)” value is given as “- (specific OD450 or cpm of sera sample binding to peptide divided by the specific OD450 or cpm of NHS sample binding to peptide, which value is less than 2)” in assay [1] (setting [21]) and “- (specific OD450 or cpm of sera sample binding to peptide divided by the specific OD450 or cpm of NHS sample binding to peptide, which value is less than 2)” in assay [1] (setting [22]). The “Percent of the maternal serum samples that bound to the peptide” value in assay [1] (all 20 samples) was determined as 35%. Besides, the “Binding / reactivity of maternal sera to peptide (in words)” value in assay [2] is listed as “recognized by the transmission group”.
